Read-outs that look alike come from different tables or passages of the source.
Columns and labels:
[1] = other bond, 2 steps
[2] = from C=CCNC(=O)O[C@@H]1CC[C@H](c2cc(Nc3ccc(S(=O)(=O)NCC=C)cc3F)nn2C(C)(C)C)C1; rcm bond; Grubbs Cat. M204 (Grubbs II); DCE; 1.92 mM; 25.0 °C; 40.0 h
[3] = from C=CCNC(=O)O[C@@H]1CC[C@H](c2cc(Nc3ccc(S(=O)(=O)NCC=C)cc3F)nn2C(C)(C)C)C1; rcm bond; 20-membered ring; Grubbs Cat. M204; DCE; 1.92 mM; 25.0 °C
CDK1/CyclinB1 = biological target: T1, CDK1/CyclinB1 (Homo sapiens, UniProt P06493); test: CDK1/CyclinB1 ChEF Assay (AQT, Table C); assay type: biochemical; conditions: 10xKm, read-out: CDK1/CCNB1 AQT AQT10xKm Ki: Average Ki
T1 construct: Wild-type, full length CDK1 in complex with wildtype, full length CyclinB1: Carna Cat #04-102; purchased Carna 04-102
T1 sequence (P06493 whole entry): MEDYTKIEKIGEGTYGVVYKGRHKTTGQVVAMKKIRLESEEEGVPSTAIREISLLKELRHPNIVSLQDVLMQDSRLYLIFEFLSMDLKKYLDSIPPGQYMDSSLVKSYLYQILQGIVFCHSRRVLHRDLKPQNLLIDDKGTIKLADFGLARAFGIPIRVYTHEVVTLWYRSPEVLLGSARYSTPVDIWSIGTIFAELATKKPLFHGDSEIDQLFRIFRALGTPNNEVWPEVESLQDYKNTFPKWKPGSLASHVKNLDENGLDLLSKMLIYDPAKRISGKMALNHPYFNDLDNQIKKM
T1 sequence (P14635 whole entry partner): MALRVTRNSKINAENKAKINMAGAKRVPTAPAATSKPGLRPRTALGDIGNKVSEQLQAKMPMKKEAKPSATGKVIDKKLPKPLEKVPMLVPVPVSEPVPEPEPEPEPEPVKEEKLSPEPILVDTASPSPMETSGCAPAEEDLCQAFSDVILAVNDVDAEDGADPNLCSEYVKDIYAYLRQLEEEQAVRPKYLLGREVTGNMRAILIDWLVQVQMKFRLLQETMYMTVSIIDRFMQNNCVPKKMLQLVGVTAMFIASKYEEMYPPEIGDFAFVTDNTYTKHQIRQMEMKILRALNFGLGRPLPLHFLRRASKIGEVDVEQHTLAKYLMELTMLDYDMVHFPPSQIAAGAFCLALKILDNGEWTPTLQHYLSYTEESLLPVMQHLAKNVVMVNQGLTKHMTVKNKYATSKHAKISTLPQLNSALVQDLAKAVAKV
Description: (§1) 16 nL of 1000× compound in 100% DMSO is added to a 384-well low volume, black assay plate. 12 μL of 1.3×CDK1/CyclinB1 (Wild-type, full length CDK1 in complex with wildtype, full length CyclinB1: Carna Cat #04-102) diluted in assay buffer (54 mM Hepes, 0.012% Brij-35, 10 mM MgCl2, 0.55 mM EGTA, 1% Glycerol, 0.02% BSA, and 1.2 mM DTT) is added to the plates on top of the compound and pre-incubated for 30 minutes at room temperature. Following the incubation, 4 uL of 4×Sox-chromophore (CSox) labeled peptide substrate (AQT0297, AssayQuant) & ATP diluted in assay buffer is added to the plate to initiate the reaction. The assay is incubated at room temperature for 120 min after initiation. The CSox peptide substrate is phosphorylated by CDK1/B1 upon ATP hydrolysis.
(§2) The fluorescent intensity measurement of the assay plate is read on a microplate reader once the assay is initiated and again at the completion of the assay. Phosphorylation of the CSox-based peptide substrate sensor results in an immediate increase in fluorescence. These raw fluorescence intensity values are normalized to calculate percent inhibition, which are fit to a four-parameter logistic curve and IC50 values are calculated. IC50 values are converted to Ki using substrate, KM^app values, and the Cheng-Prusoff equation.

CDK9/CyclinT1 [4] = biological target: T2, CDK9/CyclinT1 (Homo sapiens, UniProt P50750); test: CDK9/CyclinT1 ChEF Assay (AQT, Table C); assay type: biochemical; parameters: Wild-type, full length CDK9 in complex with wildtype, CyclinT1 (1-259): Biortus Cat #BP480/792/691; purchased Biortus BP480/792/691; conditions: 10XKm
T2 sequence (P50750 whole entry): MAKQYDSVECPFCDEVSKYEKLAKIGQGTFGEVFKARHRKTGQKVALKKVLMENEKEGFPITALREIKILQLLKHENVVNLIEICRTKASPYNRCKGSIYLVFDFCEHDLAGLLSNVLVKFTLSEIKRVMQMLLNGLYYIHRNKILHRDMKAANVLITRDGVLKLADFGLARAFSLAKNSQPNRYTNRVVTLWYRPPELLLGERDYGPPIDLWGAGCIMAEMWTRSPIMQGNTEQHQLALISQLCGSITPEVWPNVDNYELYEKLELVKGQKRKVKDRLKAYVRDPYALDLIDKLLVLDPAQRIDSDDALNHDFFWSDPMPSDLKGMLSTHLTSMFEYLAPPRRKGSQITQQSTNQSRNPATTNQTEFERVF
T2 sequence (O60563 1-259 partner limits assumed): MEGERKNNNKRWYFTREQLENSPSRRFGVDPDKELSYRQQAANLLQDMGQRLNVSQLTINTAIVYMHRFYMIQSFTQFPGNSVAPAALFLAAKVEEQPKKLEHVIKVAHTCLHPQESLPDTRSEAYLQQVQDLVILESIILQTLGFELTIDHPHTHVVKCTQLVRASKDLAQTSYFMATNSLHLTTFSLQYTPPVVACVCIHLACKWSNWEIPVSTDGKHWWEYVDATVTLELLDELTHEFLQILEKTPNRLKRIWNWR
Description: 16 nL of 1000× compound in 100% DMSO is added to a 384-well low volume, black assay plate. 12 μL of 1.3×CDK9/CyclinT1 (Wild-type, full length CDK9 in complex with wildtype, CyclinT1 (1-259): Biortus Cat #BP480/792/691) diluted in assay buffer (54 mM Hepes, 0.012% Brij-35, 10 mM MgCl2, 0.55 mM EGTA, 1% Glycerol, 0.02% BSA, and 1.2 mM DTT) is added to the plates on top of the compound and pre-incubated for 30 minutes at room temperature. Following the incubation, 4 μL of 4×Sox-chromophore (CSox) labeled peptide substrate (AQT0449, AssayQuant) & ATP diluted in assay buffer is added to the plate to initiate the reaction. The assay is incubated at room temperature for 180 min after initiation. The CSox peptide substrate is phosphorylated by CDK9/T1 upon ATP hydrolysis.
as §2

CDK2/CyclinA2 = biological target: T3, CDK2/CyclinA2 (Homo sapiens, UniProt P24941); test: CDK2/CyclinA2 ChEF Assay (AQT, Table C); assay type: biochemical; conditions: 10xKm; for Ki: AQT ChEF, read-out: CDK2/CCNA2 AQT10xKm Ki: Average Ki; for CDK2/CCNA2 AQT10xKm Ki: CDK2/A2 Selectivity over CDK1/B1 / CDK2/CCNA2 AQT10xKm Ki: CDK2/A2 Selectivity over CDK9: AQT
T3 construct: Wild-type, full length CDK2 in complex with wildtype, full length CyclinA2: Carna Cat #04-103; purchased Carna 04-103
Description: as §1, with “1.3×CDK2/CyclinA2” for “1.3×CDK1/CyclinB1”, “CDK2” for “CDK1”, “CyclinA2:” for “CyclinB1:”, “#04-103” for “#04-102)”, “90” for “120”, “CDK2/A2” for “CDK1/B1”
as §2

CDK9/CyclinT1 [5] = biological target: T2, CDK9/CyclinT1; test: CDK9/CyclinT1 Mobility Shift Assay (Caliper, Table B); assay type: biochemical; parameters: Wild-type, full length CDK9 in complex with wildtype, CyclinT1 (1-259): Biortus Cat #BP480/792/691; purchased Biortus BP480/792/691; conditions: read-out: CDK9/Cyclin T1 Caliper Ki: Average Ki
Description: 10 nL of 2000× compound in 100% DMSO is added to a 384-well polypropylene assay plate. 15 μL of 1.3×CDK9/T1 and 1.3× fluorescent substrate (Wild-type, full length CDK9 in complex with wildtype, CyclinT1 (1-259): Biortus Cat #BP480/792/691 and FL-Peptide 34: PerkinElmer Cat #760643) diluted in kinase buffer (50 mM Hepes, 0.01% Brij-35, 10 mM MgCl2, 1 mM EGTA, 0.05% BSA, and 2 mM DTT) is added to the plates on top of the compound, mixed, and pre-incubated for 30 minutes at room temperature. The fluorescently labeled peptide substrate is phosphorylated by CDK9/T1 upon ATP hydrolysis. Following the incubation, 5 μL of 4×ATP diluted in kinase buffer is added to the plate to initiate the reaction. Following the 30-minute incubation, the reaction is stopped by adding 75 μL of stopping buffer containing 0.5 M EDTA.
The assay plate is then read on a Lab Chip EZ Reader which separates the fluorescently labeled substrate and product peptides through a mobility difference. The phosphorylation of the substrate imparts a negative charge, which allows differences in separation as both are pulled through the microfluidic chip. The ratio of substrate and product values are used to generate percent conversion. These raw percent conversion values are normalized to calculate percent inhibition, which are fit to a four-parameter logistic curve and IC50 values are calculated. IC50 values are converted to Ki using substrate, Kmapp values, and the Cheng-Prusoff equation.

Compound | Ki (CDK1/CyclinB1) | Ki (CDK9/CyclinT1 [4]) | Ki (CDK2/CyclinA2) | CDK2/CCNA2 AQT10xKm Ki: CDK2/A2 Selectivity over CDK1/B1 (CDK2/CyclinA2) | CDK2/CCNA2 AQT10xKm Ki: CDK2/A2 Selectivity over CDK9 (CDK2/CyclinA2) | Ki (CDK9/CyclinT1 [5]) | other results
CC(C)(C)OC(=O)NCCCCCNc1cc(Nc2ncc(C3CCC(OC(=O)Oc4ccc([N+](=O)[O-])cc4)C3)cn2)ccc1S(=O)(=O)NC(=O)OC(C)(C)C (centres unmarked) |  |  |  |  |  |  | ring closure, isolated yield ([1]; the molecule shown is the open-chain precursor, 20-membered ring, HCOOH, then DIEA, DMF, 76.7 mM, 50.0 °C): 39.5%
CC(C)(C)OC(=O)NCCOCCNS(=O)(=O)c1ccc(Nc2cc([C@H]3CC[C@@H](OC(=O)Oc4ccc([N+](=O)[O-])cc4)C3)n(C(C)(C)C)n2)c(F)c1 |  |  |  |  |  |  | ring closure, isolated yield ([1]; the molecule shown is the open-chain precursor, 21-membered ring, TFA, then DIPEA, DCE, 5.25 mM, 25.0 °C): 62.3%
CC(C)(C)n1nc2cc1[C@H]1CC[C@H](C1)OC(=O)NCC=CCNS(=O)(=O)c1ccc(c(F)c1)N2 |  |  |  |  |  |  | ring closure, yield of all isomers [2]: 29%; ring closure, yield after HPLC [3]: 29%
NS(=O)(=O)c1ccc2cc1OCCCCCNC(=O)O[C@H]1CC[C@H](C1)c1cnc(nc1)N2 (stereo in doubt) [Compound 103, 12-oxo-5,13-dioxa-3,11-diaza-2(5,2)-pyrimidina-4(1,3)-benzena-1(1,3)-cyclopentanacyclotridecaphane-44-sulfonamide] | 1 to 25 nM | 1 to 25 nM | < 1 nM | A (A>10) | A (A>10) | ≥ 100 nM | 
NS(=O)(=O)c1ccc2cc1OCCCCCNC(=O)O[C@H]1CC[C@H](C1)c1cnc(nc1)N2 (stereo in doubt) [Compound 104, rel-(2R,5S)-7-oxo-6,14-dioxa-8,20,22,25-tetraazatetracyclo[19.2.2.1^{2,5}.1^{15,19}]heptacosa-1(23),15,17,19(26),21,24-hexaene-16-sulfonamide] | 1 to 25 nM | ≥ 100 nM | < 1 nM | A (A>10) | A (A>10) | ≥ 100 nM | 
(1^1S,1^3R,Z)-2^1H-15-oxa-5-thia-3,6,13-triaza-2(5,3)-pyrazola-4(1,4)-cyclohexana-1(1,3)-cyclopentanacyclopentadecaphan-14-one 5,5-dioxide |  |  |  |  |  |  | ring closure, isolated yield ([1]; 22-membered ring, TFA, then DIPEA, DCM/DCE, 4.26 mM, 25.0 °C): 50%
